{"source": "patent US20260130369A1", "about": "“MARINE ALGICIDES” (Mote Marine Laboratory, Inc., priority 2022, published 2026)", "data": [{"test_system": "K. brevis", "experiment": "K. brevis mortality test of individual pure compounds against red tide cultures", "type": "cell-based, Karenia brevis", "conditions": "100% mortality of K. brevis within 2 hours after administration to a water sample containing K. brevis", "description": "Shown below in Table 1 are one saturated fatty acid (viz., palmitic acid) and nine exemplary algicidal unsaturated fatty acids, along with their omega nomenclature (viz., number of carbon atoms, number of double bonds, number of carbon atoms from the carboxylic acid end to the first carbon in a double bond) and the required dosage in ppm to obtain 100% mortality of K. brevis, within 2 hours after administration to a water sample containing K. brevis, according to embodiments of the present disclosure.\nThe relative toxic effects shown in Table 1 were determined by obtaining individual pure compounds and testing them against red tide cultures of K. brevis. The compounds in Table 1 may also be tested as salts or soaps, and in water or non-methanolic solvents such as ethanol, acetone, acetic acid, dimethyl sulfoxide (DMSO) or other polar or non-polar solvent. […] In embodiments, the observed mortality may for example be at least 25%, at least 50%, at least 75%, at least 90% or as much as 100% in a desired time frame (e.g., within 2 hours, within 4 hours, within 8 hours, within 24 hours, or within 2, 3 or 4 days following application of the algicidal compound. In some embodiments, 100% death of red tide organisms may be achieved within 30 minutes of application within a target area. Additionally, extracts of macro algae common in environments suitable for K. brevis were tested to see how the mixture of fatty acids in those extracts would perform as algicidal agents. Use of a single compound instead of a mixture may be preferable under many common circumstances. However, Ulva latuca and Gracilaria tikvahiae contain mixtures of fatty acids and may be used as salts or soaps or in non-methanolic solutions to control K. brevis red tide blooms, according to embodiments of the present disclosure.\nTo measure K. brevis mortality in a liquid, the concentration of K. brevis is measured before any algaecides are added. An algaecide is then added, and the concentration of live K. brevis measured at intervals (e.g. 1, 2, 5, 10, 20, and 30 minutes). This may also be performed in serial stages. For example, if the mortality rate of K. brevis at 30 minutes is 100%, the experiment may be repeated and the concentration of K. brevis measured at a lesser time point, such as after 20 minutes. If the mortality rate of K. brevis is still 100%, the experiment may be repeated again with the concentration measured at a lesser time point, such as after 10 minutes. The experiment may be repeated as many times as necessary to measure how long it takes for an algaecide to reach 100% mortality rate of K. brevis. Any suitable time periods may be used to measure the concentration of K. brevis.\nA variety of techniques may be used to measure K. brevis concentrations. In some embodiments, staining techniques are used. Staining may be performed with Lugol's Iodine Solution stain, which will become fixed to and stain the K. brevis so that it may be visualized. Other stains may be used, such as Invitrogen™ SYTOX™ Green from Thermo Fisher Scientific, which will penetrate compromised membranes (a feature characteristic of dead cells) of K. brevis and stain them. Fluorescein Diacetate may also be used, where live cells convert the fluorescein diacetate to […] which fluoresces and may be measured. Additionally, 4′,6-diamidino-2-phenylindole (DAPI) may also be used to stain nucleic acids that are inside or outside of cells. In addition to staining methods, the concentration of K. brevis may also be measured by other imaging techniques such as manual count, microscopy, fluorometry, flow cytometry, or other possible staining or counting techniques. FIG. 3 depicts one method of measuring K. brevis concentration using Invitrogen™ SYTOX™ Green.", "units": {"Dosage (PPM) for 100% Mortality in under 2 hrs": "PPM"}, "values": [{"smiles": "CCCCC/C=C\\C/C=C\\C/C=C\\C/C=C\\CCCC(=O)O", "note": "[Arachidonic Acid]", "Dosage (PPM) for 100% Mortality in under 2 hrs": 1.5}, {"smiles": "CC/C=C\\C/C=C\\C/C=C\\C/C=C\\CCCCC(=O)O", "note": "[Stearidonic Acid]", "Dosage (PPM) for 100% Mortality in under 2 hrs": ">2"}, {"smiles": "CC/C=C\\C/C=C\\C/C=C\\CCCCCCCC(=O)O", "note": "[Alpha-linolenic Acid]", "Dosage (PPM) for 100% Mortality in under 2 hrs": 3}, {"smiles": "CCCCCC/C=C\\CCCCCCCC(=O)O", "note": "[Palmitoleic Acid]", "Dosage (PPM) for 100% Mortality in under 2 hrs": 3}, {"smiles": "CCCCCC/C=C\\CCCCCCCCCC(=O)O", "note": "[Vacennic Acid]", "Dosage (PPM) for 100% Mortality in under 2 hrs": ">6"}, {"smiles": "CC/C=C\\C/C=C\\C/C=C\\C/C=C\\C/C=C\\CCCC(=O)O", "note": "[Eicosapentaenoic Acid]", "Dosage (PPM) for 100% Mortality in under 2 hrs": "<2"}, {"smiles": "CCCCC/C=C\\C/C=C\\C/C=C\\C/C=C\\CCCCCC(=O)O", "note": "[Adrenic Acid]", "Dosage (PPM) for 100% Mortality in under 2 hrs": "<50"}, {"smiles": "CC/C=C\\C/C=C\\C/C=C\\C/C=C\\CCC(=O)O", "note": "[Hexadecatetraenoic Acid]", "Dosage (PPM) for 100% Mortality in under 2 hrs": ">1"}, {"smiles": "CCCCCCCCCCCCCCCC(=O)O", "note": "[Palmitic Acid, reference compound]", "Dosage (PPM) for 100% Mortality in under 2 hrs": ">10"}, {"smiles": "CC/C=C\\C/C=C\\C/C=C\\C/C=C\\C/C=C\\C/C=C\\CCC(=O)O", "note": "[Docosahexanoic Acid]", "Dosage (PPM) for 100% Mortality in under 2 hrs": "<2.5"}]}, {"test_system": "K. brevis cells", "experiment": "Large-scale mesocosm experiment, efficacy of algicide treatment (red tide cell counts)", "type": "cell-based, Karenia brevis", "conditions": "15 or 25 ppm particles; 1400 L tanks; 1 million cells/L; first (15 minute) sampling period", "description": "A large-scale mesocosm experiment was conducted to evaluate the efficacy of algicide treatment and marine organism toxicity. In each of four 1400 L exposure tanks containing K. brevis cells at a red tide concentration of 1 million cells/L, potassium ricinoleate particles were added to the tanks at levels of 15 or 25 ppm. At 15 minutes after addition of the algicidal agent to each tank, water samples were collected for red tide cell counts.\nMarine organism toxicity was evaluated by adding grass shrimp or Gulf killifish to the tanks along with the red tide cells and 15 or 25 ppm of the algicidal compounds. The red tide cells were quickly killed as before. After 18 and 24 hours, all shrimp remained alive. After 18 hours all fish were alive, but significant fish mortality was observed after 24 hours. The fish mortality was determined to be due to insufficient tank water circulation and oxygenation, and repeating the fish experiment with adequate circulation and oxygenation should eliminate or at least reduce the observed fish mortality.", "values": [{"smiles": "CCCCCC[C@@H](O)C/C=C\\CCCCCCCC(=O)[O-].[K+]", "note": "[potassium ricinoleate]", "red tide cell mortality (no live cells under microscopic examination)": "complete red tide cell mortality"}]}]}
